The values that follow come from PubChem BioAssay (NCI).

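Tested at 5 concentrations; 48 h exposure; 96-well plates; endpoints linearly interpolated, else capped at highest concentration. GI50 = concentration required for 50% inhibition of growth. At the TGI there is no net growth.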 Some results are limits rather than exact numbers.

Among the test systems are PC-3 prostate; K-562 leukemia; SN12C renal; NCI-H226 lung; SNB-75 CNS; DU-145 prostate; SK-MEL-2 melanoma; TK-10 renal; HS 578T breast; A549 NSCLC; LOX IMVI melanoma; SF-295 CNS; UACC-257 melanoma; U251 CNS; MCF7 breast.
Holding throughout (assay): NCI tumour cell line growth inhibition, 48 h

Regarding `CC1CC(C)[C@H](O)C([C@H](O)CC2CC(=O)N(C)C(=O)C2)C1` (stereo not given in full), the TGI with PC-3 prostate, with K-562 leukemia, with SN12C renal, with NCI-H226 lung, in the test with SNB-75 CNS and in the test with DU-145 prostate was greater than 100 µM in each case. The TGI in the test with SK-MEL-2 melanoma, in the test on TK-10 renal, in the test on HS 578T breast, with A549 NSCLC, in the test on LOX IMVI melanoma and in the test with SF-295 CNS was greater than 100 µM in each case. Besides, the TGI with UACC-257 melanoma, in the test with U251 CNS and in the test on MCF7 breast was greater than 100 µM each time.
Take `O[C@@]1(c2cccs2)c2cccc(Cl)c2[C@](O)(c2cccs2)c2cccc(Cl)c21`: the TGI in the test on PC-3 prostate is 50.7 µM; in the test with K-562 leukemia it was greater than 100 µM; with SN12C renal, 34.1 µM; in the test with NCI-H226 lung, 57.1 µM; in the test with SNB-75 CNS it was greater than 100 µM; with DU-145 prostate, 64.6 µM. Also, the TGI in the test with SK-MEL-2 melanoma was determined as 42.4 µM; with TK-10 renal, 99.4 µM; in the test on HS 578T breast it was 49.2 µM; in the test with A549 NSCLC, 43.7 µM; with LOX IMVI melanoma it was 33.2 µM; in the test on SF-295 CNS, 31.3 µM. Further, the values for the TGI with UACC-257 melanoma, in the test with U251 CNS and with MCF7 breast were 30.3 µM, 33.2 µM and 37.2 µM, respectively.
In the case of `COc1ccc(/C(CCl)=C(\Nc2ccccc2)c2ccc(OC)c(OC)c2)cc1OC`, the TGI in the test on PC-3 prostate, in the test with K-562 leukemia, in the test with SN12C renal, in the test on NCI-H226 lung, in the test on SNB-75 CNS and in the test on DU-145 prostate was greater than 100 µM throughout. Further, the TGI in the test on SK-MEL-2 melanoma, with TK-10 renal, with HS 578T breast, in the test on A549 NSCLC, with LOX IMVI melanoma and with SF-295 CNS was greater than 100 µM each time. Also, the TGI in the test with UACC-257 melanoma, with U251 CNS and in the test on MCF7 breast was greater than 100 µM throughout.
On to `CC1=C(C(=O)N[C@@H](Cc2ccccc2)C(=O)O)N2C(=O)[C@@H](NC(=O)[C@@H](N)CC(C)C)[C@H]2SC1`, for which the TGI in the test on PC-3 prostate, in the test with K-562 leukemia, in the test with SN12C renal, with NCI-H226 lung, in the test with SNB-75 CNS and in the test on DU-145 prostate was greater than 100 µM throughout. Besides, the TGI with SK-MEL-2 melanoma, with TK-10 renal, in the test with HS 578T breast, in the test on A549 NSCLC, in the test on LOX IMVI melanoma and in the test on SF-295 CNS was greater than 100 µM each time. Besides, the TGI in the test with UACC-257 melanoma, in the test with U251 CNS and with MCF7 breast was greater than 100 µM throughout.
On to `CN1CCC(CNC(=O)CCCCCCCCC(=O)NCC2(c3ccccc3)CCN(C)CC2)(c2ccccc2)CC1`, for which the TGI in the test with PC-3 prostate, in the test on K-562 leukemia, in the test on SN12C renal, in the test on NCI-H226 lung, in the test with SNB-75 CNS and in the test with DU-145 prostate was greater than 100 µM throughout. Further, the TGI in the test on SK-MEL-2 melanoma, in the test on TK-10 renal, in the test with HS 578T breast, with A549 NSCLC, with LOX IMVI melanoma and in the test with SF-295 CNS was greater than 100 µM throughout. Also, the TGI in the test with UACC-257 melanoma, in the test with U251 CNS and with MCF7 breast was greater than 100 µM throughout.
Regarding `CC(C)(C)OC(=O)NC1CC=CCC1NC(=O)OC(C)(C)C` (stereo not given), the TGI in the test on PC-3 prostate, in the test with K-562 leukemia, in the test with SN12C renal, in the test with NCI-H226 lung, in the test with SNB-75 CNS and in the test on DU-145 prostate was greater than 100 µM throughout. Besides, the TGI with SK-MEL-2 melanoma, in the test with TK-10 renal, with HS 578T breast, in the test with A549 NSCLC, in the test with LOX IMVI melanoma and in the test on SF-295 CNS was greater than 100 µM throughout. The TGI with UACC-257 melanoma, in the test on U251 CNS and in the test with MCF7 breast was greater than 100 µM each time.
Regarding `N#Cc1nc(C2CC2)oc1N`, the TGI in the test with PC-3 prostate, with K-562 leukemia, in the test with SN12C renal, with NCI-H226 lung, in the test on SNB-75 CNS and in the test on DU-145 prostate was greater than 100 µM each time. Also, the TGI in the test with SK-MEL-2 melanoma, in the test with TK-10 renal, with HS 578T breast, in the test with A549 NSCLC, in the test with LOX IMVI melanoma and in the test on SF-295 CNS was greater than 100 µM in each case. For the same molecule, the TGI with UACC-257 melanoma, in the test on U251 CNS and with MCF7 breast was greater than 100 µM throughout.
For the molecule `FC(F)(F)c1nc2ccc(SSc3ccc4nc(C(F)(F)F)[nH]c4c3)cc2[nH]1`, the TGI with PC-3 prostate, with K-562 leukemia, in the test on SN12C renal, in the test on NCI-H226 lung, in the test with SNB-75 CNS and with DU-145 prostate was greater than 100 µM each time. The TGI in the test with SK-MEL-2 melanoma, in the test on TK-10 renal, in the test on HS 578T breast, in the test with A549 NSCLC, in the test with LOX IMVI melanoma and with SF-295 CNS was greater than 100 µM in each case. The TGI in the test on UACC-257 melanoma, in the test with U251 CNS and with MCF7 breast was greater than 100 µM each time. Moreover, the GI50 with NCI-H226 lung, in the test on SNB-75 CNS, in the test on DU-145 prostate, in the test with SK-MEL-2 melanoma and in the test on HS 578T breast was greater than 100 µM each time.
Consider `C#CCn1c(=O)ccn(/C(=C\C(=O)OCC)C(=O)OCC)c1=O`, for which the TGI was 29.4 µM in the test on PC-3 prostate; greater than 100 µM in the test with K-562 leukemia; greater than 58 µM with SN12C renal; 40.4 µM in the test with NCI-H226 lung; 39.9 µM in the test on SNB-75 CNS; 31.1 µM with DU-145 prostate. The TGI was 32.5 µM in the test on SK-MEL-2 melanoma; 3.45 µM in the test on TK-10 renal; 63.5 µM with HS 578T breast; 43.8 µM in the test on A549 NSCLC; greater than 50.5 µM in the test on LOX IMVI melanoma; 43.3 µM in the test on SF-295 CNS. Besides, the results for the TGI in the test with UACC-257 melanoma, in the test on U251 CNS and with MCF7 breast were 29.5 µM, 39.8 µM and 9.78 µM, respectively.
Take `CCC(CS(=O)(=O)O)[N+](=O)[O-]` (stereo not given): the TGI in the test with PC-3 prostate, in the test with K-562 leukemia, in the test with SN12C renal, in the test with NCI-H226 lung, with SNB-75 CNS and in the test with DU-145 prostate was greater than 100 µM in each case. The TGI in the test with SK-MEL-2 melanoma, in the test with TK-10 renal, in the test with HS 578T breast, in the test on A549 NSCLC, with LOX IMVI melanoma and with SF-295 CNS was greater than 100 µM throughout. In addition, the TGI in the test with UACC-257 melanoma, with U251 CNS and with MCF7 breast was greater than 100 µM in each case.
